Measurements taken from ChEMBL document CHEMBL4725298, “Exploration of piperazine-derived thioureas as antibacterial and anti-inflammatory agents. In vitro evaluation against clinical isolates of colistin-resistant Acinetobacter baumannii” (Bioorg Med Chem Lett, 2020).
Values after ≈ are worked out from the molar mass of the structure shown. Active and inactive are the calls of the source. No cut-off for these calls is given here.

What was measured:
Acinetobacter baumannii [1] = assay: Antibacterial activity against colistin-resistant Acinetobacter baumannii 14 assessed as reduction in bacterial growth incubated for 24 hrs by standard broth microdilution method; assay type: functional
Acinetobacter baumannii [2] = assay: Antibacterial activity against colistin-resistant Acinetobacter baumannii 21R assessed as reduction in bacterial growth incubated for 24 hrs by standard broth microdilution method; assay type: functional
Acinetobacter baumannii [3] = assay: Antibacterial activity against colistin-resistant Acinetobacter baumannii 22P assessed as reduction in bacterial growth incubated for 24 hrs by standard broth microdilution method; assay type: functional
Acinetobacter baumannii [4] = assay: Antibacterial activity against colistin-resistant Acinetobacter baumannii 24 assessed as reduction in bacterial growth incubated for 24 hrs by standard broth microdilution method; assay type: functional
[5] = Cytotoxicity against human A549 cells; assay type: cell-based
RAW264.7 [6] = assay: Antiinflammatory activity against mouse RAW264.7 cells assessed as reduction in LPS-induced NO production at 50 uM incubated for 24 hrs by Griess assay; assay type: functional, cell-based
RAW264.7 [7] = assay: Antiinflammatory activity against mouse RAW264.7 cells assessed as reduction in LPS-induced NO production at 1 to 10 uM incubated for 24 hrs by Griess assay relative to control; assay type: functional; conditions: dose microM 1-10
Acinetobacter baumannii [8] = assay: Antibacterial activity against colistin-resistant Acinetobacter baumannii 11 assessed as reduction in bacterial growth incubated for 24 hrs by standard broth microdilution method; assay type: functional
Acinetobacter baumannii [9] = assay: Antibacterial activity against colistin-resistant Acinetobacter baumannii 17 assessed as reduction in bacterial growth incubated for 24 hrs by standard broth microdilution method; assay type: functional
Acinetobacter baumannii [10] = assay: Antibacterial activity against Acinetobacter baumannii 22P assessed as reduction in bacterial growth in presence of colistin incubated for 24 hrs by standard broth microdilution method; assay type: functional
Acinetobacter baumannii [11] = assay: Bactericidal activity against colistin-resistant Acinetobacter baumannii 21R at 4 times of MIC incubated for 4 hrs by time kill curve based analysis; assay type: functional, organism-based
Acinetobacter baumannii [12] = assay: Bactericidal activity against colistin-resistant Acinetobacter baumannii 21R assessed as log10 reduction of bacterial colony forming unit at 2 times of MIC incubated for 4 hrs by time kill curve based analysis; assay type: functional
Acinetobacter baumannii [13] = assay: Bactericidal activity against colistin-resistant Acinetobacter baumannii 22P at 12.5 to 50 uM incubated upto 24 hrs by time kill curve based analysis; assay type: functional, organism-based; conditions: dose microM 12.5-50, time hrs <=24
Acinetobacter baumannii [14] = assay: Synergistic antibacterial activity against Acinetobacter baumannii 22P assessed as fractional inhibitory concentration index incubated for 24 hrs in presence of colistin by standard broth microdilution method; assay type: functional
Acinetobacter baumannii [15] = assay: Synergistic antibacterial activity against Acinetobacter baumannii 21R assessed as fractional inhibitory concentration index incubated for 24 hrs in presence of colistin by standard broth microdilution method; assay type: functional
Acinetobacter baumannii [16] = assay: Antibacterial activity against Acinetobacter baumannii 22P assessed as fractional inhibitory concentration incubated for 24 hrs by standard broth microdilution method relative to control; assay type: functional
Acinetobacter baumannii [17] = assay: Antibacterial activity against Acinetobacter baumannii 21R assessed as fractional inhibitory concentration incubated for 24 hrs by standard broth microdilution method relative to control; assay type: functional
Acinetobacter baumannii [18] = assay: Antibacterial activity against Acinetobacter baumannii 21R assessed as reduction in bacterial growth in presence of colistin incubated for 24 hrs by standard broth microdilution method; assay type: functional
Acinetobacter baumannii [19] = assay: Potentiation of colistin-induced antibacterial activity against Acinetobacter baumannii 21R assessed as fold reduction in colistin MIC incubated for 24 hrs by standard broth microdilution method; assay type: functional
Acinetobacter baumannii [20] = assay: Potentiation of colistin-induced antibacterial activity against Acinetobacter baumannii 22P assessed as fold reduction in colistin MIC incubated for 24 hrs by standard broth microdilution method; assay type: functional
RAW264.7 [21] = assay: Cytotoxicity against mouse RAW264.7 cells assessed as reduction in cell viability at 1 to 10 uM incubated for 24 hrs; assay type: cell-based; conditions: raw264.7, 24 h, dose 1-10 µM

| Compound | MIC (Acinetobacter baumannii [1]) [µM] | MIC (Acinetobacter baumannii [2]) [µM] | MIC (Acinetobacter baumannii [3]) [µM] | MIC (Acinetobacter baumannii [4]) [µM] | CC50 [5] [µM] | inhibition (RAW264.7 [6]) | inhibition (INH) (RAW264.7 [7]) | also measured |
| --- | --- | --- | --- | --- | --- | --- | --- | --- |
| CC1CN(C(=O)CC(C)(C)C)CCN1C(=S)Nc1cc(C(F)(F)F)cc(C(F)(F)F)c1 (racemic) | 50 (≈ 23.5 µg/mL) | 6.25 (≈ 2.93 µg/mL) | 6.25 (≈ 2.93 µg/mL) | 6.25 (≈ 2.93 µg/mL) | 73.2 | Active | 40% |  |
| CC1CN(C(=O)Cc2ccccc2)CCN1C(=S)Nc1cc(C(F)(F)F)cc(C(F)(F)F)c1 (stereo not drawn) | 3.12 (≈ 1.53 µg/mL) | 3.12 (≈ 1.53 µg/mL) |  | 6.25 (≈ 3.06 µg/mL) | 130 | Active |  | MIC (Acinetobacter baumannii [8]): 6.25 µM (≈ 3.06 µg/mL); MIC (Acinetobacter baumannii [9]): 3.12 µM (≈ 1.53 µg/mL) |
| O=C(Cc1ccccc1)N1CCN(C(=S)Nc2cc(C(F)(F)F)cc(C(F)(F)F)c2)C(c2ccccc2)C1 (stereo not drawn) |  |  |  |  |  | Active |  | MIC (Acinetobacter baumannii [9]): 3.12 µM (≈ 1.72 µg/mL) |
| CC(C)(C)OC(=O)N1CCN(C(=S)Nc2cc(C(F)(F)F)cc(C(F)(F)F)c2)CC1 | 6.25 (≈ 2.86 µg/mL) | 6.25 (≈ 2.86 µg/mL) | 12.5 (≈ 5.72 µg/mL) |  | 109 | Active |  | MIC (Acinetobacter baumannii [10]): 1.56 µM; MIC (Acinetobacter baumannii [8]): 12.5 µM (≈ 5.72 µg/mL); MIC (Acinetobacter baumannii [9]): 6.25 µM (≈ 2.86 µg/mL); Activity (Acinetobacter baumannii [11]): Active; Activity (Acinetobacter baumannii [12]): 3 log10CFU/ml; Activity (Acinetobacter baumannii [13]): inactive; fractional inhibitory concentration index (FICI) (Acinetobacter baumannii [14]): 0.37; fractional inhibitory concentration index (FICI) (Acinetobacter baumannii [15]): 0.5; FIC (Acinetobacter baumannii [16]): 0.12; FIC (Acinetobacter baumannii [17]): 0.12; MIC (Acinetobacter baumannii [18]): 0.78 µM; fold change (FC) (Acinetobacter baumannii [19]): 4; fold change (FC) (Acinetobacter baumannii [20]): 4 |
| O=C(CC1CCCCC1)N1CCN(C(=S)Nc2cc(C(F)(F)F)cc(C(F)(F)F)c2)C(c2ccccc2)C1 (stereo not drawn) |  | 3.12 (≈ 1.74 µg/mL) | 6.25 (≈ 3.49 µg/mL) | 3.12 (≈ 1.74 µg/mL) | 125 | Active | >=80% | MIC (Acinetobacter baumannii [8]): 3.12 µM (≈ 1.74 µg/mL); Activity (RAW264.7 [21]): Toxic |
| CC1CN(C(=O)CC2CCCCC2)CCN1C(=S)Nc1ccc(Cl)cc1 (stereo not drawn) | 50 (≈ 19.7 µg/mL) | 12.5 (≈ 4.92 µg/mL) | 12.5 (≈ 4.92 µg/mL) | 25 (≈ 9.85 µg/mL) | 200 |  |  |  |
| CC1CN(C(=O)CC2CCCCC2)CCN1C(=S)Nc1ccc(C(F)(F)F)cc1 (stereo not drawn) | 12.5 (≈ 5.34 µg/mL) | 25 (≈ 10.7 µg/mL) | 6.25 (≈ 2.67 µg/mL) | 3.12 (≈ 1.33 µg/mL) |  |  |  |  |
| CC(C)(C)CC(=O)N1CCN(C(=S)Nc2cc(C(F)(F)F)cc(C(F)(F)F)c2)C(c2ccccc2)C1 (stereo not drawn) |  | 3.12 (≈ 1.66 µg/mL) | 3.12 (≈ 1.66 µg/mL) | 3.12 (≈ 1.66 µg/mL) |  | Active | >=80% | MIC (Acinetobacter baumannii [8]): 3.12 µM (≈ 1.66 µg/mL) |
| CC1CN(C(=O)CC2CCCCC2)CCN1C(=S)Nc1cc(C(F)(F)F)cc(C(F)(F)F)c1 (stereo not drawn) | 50 (≈ 24.8 µg/mL) | 3.12 (≈ 1.55 µg/mL) | 1.56 (≈ 0.773 µg/mL) | 25 (≈ 12.4 µg/mL) | 82 | Active | 40% |  |
| CC1CN(C(=O)Cc2ccccc2)CCN1C(=S)Nc1ccc(Cl)cc1 (stereo not drawn) |  |  |  |  |  | Active |  | Activity (Acinetobacter baumannii [8]): inactive; Activity (Acinetobacter baumannii [1]): inactive; Activity (Acinetobacter baumannii [9]): inactive; Activity (Acinetobacter baumannii [2]): inactive; Activity (Acinetobacter baumannii [3]): inactive; Activity (Acinetobacter baumannii [4]): inactive |
| CC1CN(C(=O)CC2CCCCC2)CCN1C(=S)Nc1ccc(C#N)cc1 (stereo not drawn) |  |  |  |  |  | Active |  | Activity (Acinetobacter baumannii [8]): inactive; Activity (Acinetobacter baumannii [1]): inactive; Activity (Acinetobacter baumannii [9]): inactive; Activity (Acinetobacter baumannii [2]): inactive; Activity (Acinetobacter baumannii [3]): inactive; Activity (Acinetobacter baumannii [4]): inactive |
| CC(C)(C)OC(=O)N1CCN(C(=S)Nc2cc(C(F)(F)F)cc(C(F)(F)F)c2)C(c2ccccc2)C1 (stereo not drawn) | 12.5 (≈ 6.67 µg/mL) |  |  |  | 127 | Active | >=80% | MIC (Acinetobacter baumannii [9]): 6.25 µM (≈ 3.33 µg/mL); Activity (RAW264.7 [21]): Toxic |
| CC1CN(C(=O)Cc2ccccc2)CCN1C(=S)Nc1ccc(C(F)(F)F)cc1 (stereo not drawn) |  |  |  |  |  | Active |  | Activity (Acinetobacter baumannii [8]): inactive; Activity (Acinetobacter baumannii [1]): inactive; Activity (Acinetobacter baumannii [9]): inactive; Activity (Acinetobacter baumannii [2]): inactive; Activity (Acinetobacter baumannii [3]): inactive; Activity (Acinetobacter baumannii [4]): inactive |
| C[C@@H]1CN(C(=O)CC(C)(C)C)CCN1C(=S)Nc1cc(C(F)(F)F)cc(C(F)(F)F)c1 |  | 6.25 (≈ 2.93 µg/mL) | 12.5 (≈ 5.87 µg/mL) | 6.25 (≈ 2.93 µg/mL) | 162 |  |  |  |
| C[C@H]1CN(C(=O)CC(C)(C)C)CCN1C(=S)Nc1cc(C(F)(F)F)cc(C(F)(F)F)c1 |  | 6.25 (≈ 2.93 µg/mL) | 6.25 (≈ 2.93 µg/mL) | 12.5 (≈ 5.87 µg/mL) | 73.5 |  |  |  |
| COLISTIN | 56 | 1770 | 3540 | 7 |  |  |  | MIC (Acinetobacter baumannii [8]): 14 µM; MIC (Acinetobacter baumannii [9]): > 111 µM; FIC (Acinetobacter baumannii [16]): 0.25; FIC (Acinetobacter baumannii [17]): 0.38 |
| CC1CN(C(=O)CC2CCCCC2)CCN1C(=S)Nc1ccc([N+](=O)[O-])cc1 (stereo not drawn) |  | 25 (≈ 10.1 µg/mL) | 12.5 (≈ 5.06 µg/mL) |  |  | Active |  | Activity (Acinetobacter baumannii [8]): inactive; Activity (Acinetobacter baumannii [1]): inactive; Activity (Acinetobacter baumannii [9]): inactive; Activity (Acinetobacter baumannii [4]): inactive |
| CC1CN(C(=O)OC(C)(C)C)CCN1C(=S)Nc1cc(C(F)(F)F)cc(C(F)(F)F)c1 (stereo not drawn) | 3.12 (≈ 1.47 µg/mL) |  |  |  | 112 | Active | 40% |  |
